Reference: ChEMBL document CHEMBL1157539, “Thousands of chemical starting points for antimalarial lead identification” (Nature, 2010)
Values joined by “and” are separate entries in the source; they are usually repeats but may differ in a detail not shown here. Equal entries are not always repeated.

These compounds were tested on Plasmodium falciparum (assay: GSK_TCMDC: Inhibition of Plasmodium falciparum 3D7 in whole erythrocytes, using parasite LDH activity as an index of growth.). Details: not given.
Type: functional, organism-based
With COc1ccc2ncc(F)c(CCN3CC(O)C(CNCc4nc5c(cc4Cl)OCC(=O)N5)C3)c2n1 (stereo not drawn) the XC50 was 1.28 µM and 0.954 µM. For O=C(/C=C/c1ccc(Cl)c(Cl)c1)NC1CCC(CN2CCC(c3c[nH]c4cc(C(F)(F)F)ccc34)CC2)CC1 (stereo not drawn), the XC50 was 0.278 µM and 0.897 µM.

Same assay, conditions: Plasmodium falciparum, 3D7
O=C(NCCN1CCCC1)c1cccc(Nc2nccc(Nc3ccc(Oc4ccccc4)cc3)n2)c1 gave an XC50 of 0.654 µM. COc1ccc(C2=[N+]([O-])c3ccccc3C2=O)cc1 was tested, and the XC50 was 0.783 µM. CCC(ON1C(N)=NC(N)=NC1(C)C)c1ccc(Cl)cc1 (stereo not drawn) showed an XC50 of 0.0032 µM. COc1ccc2nccc(N3CCC(NCCNS(=O)(=O)c4ccc5c(c4)NC(=O)CS5)C3)c2n1 (stereo not drawn) showed an XC50 of 0.901 µM. With Cc1cc(NC(=O)Nc2ccc3ccn(C)c3c2)c2ccccc2n1 the XC50 was 0.214 µM. For CCCN/C=N/c1cc(-c2csc(NC(=N)N)n2)cc([N+](=O)[O-])c1, the XC50 was 1.74 µM. For CS(=O)(=O)CCNCc1nc(-c2ccc3c(Nc4ccc(F)c(O)c4)ccnc3c2)cs1, the XC50 was 0.82 µM. For CCOc1cc2ncnc(Nc3ccc(OCc4ccccc4F)c(Cl)c3)c2cc1OCC, the XC50 was 0.601 µM. CCCCCCN1CCC(CNCc2cccc([N+](=O)[O-])c2)CC1 showed an XC50 of 0.72 µM. Work on Cc1c(-c2cccc(CNCCc3ccc(Cl)cc3)c2)cnc(N)c1C yielded an XC50 of 1.04 µM. In the case of COc1ccc2nccc([C@@H](O)CN3CCC(NCc4cc5ccccc5nn4)CC3)c2c1, the XC50 is reported as 1.2 µM. In the case of CN(C)Cc1ccc(-c2ccc3ccnc(N)c3c2)cc1, the XC50 is reported as 0.38 µM. For COc1ccc2ncc(C)c(CCN3CCC(NCc4ccc5c(n4)NC(=O)CS5)CC3)c2c1, the XC50 was 0.546 µM. Compound CC(C)CCN(Cc1cncn1Cc1cccc(C(F)(F)F)c1)C(=O)c1ccccc1C#N has an XC50 of 0.614 µM. Work on CC(O)c1cccc(-c2ccc(Nc3ccnc4cc(-c5nccs5)ccc34)cc2)c1 (stereo not drawn) yielded an XC50 of 1.01 µM. For CC=CC1CCNC(C(O)c2ccnc3ccc(OC)cc23)C1 (stereo not drawn), the XC50 was 1.09 µM. Compound Cc1ccc(S(=O)(=O)c2nc(S(=O)(=O)c3ccccc3)sc2NCC2CCCO2)cc1 (stereo not drawn) has an XC50 of 1.02 µM. With CCCCOC(=O)C1=C(C)NC2=C(C(=O)CC(c3ccc(OC)c(OC)c3)C2)C1c1ccc(O)cc1 (stereo not drawn) the XC50 was 0.834 µM. For OC(c1cccc2ccccc12)C1CN(CCc2ccccc2)CCC1(O)c1ccccc1 (stereo not drawn), the XC50 was 0.145 µM. With CCOc1ccc(C(C)NC(=O)C2COc3ccccc3O2)cc1OCC (stereo not drawn) the XC50 was 0.899 µM. CC(C)C[C@H]1C(=O)N[C@H](C2Cc3ccccc3C2)C(=O)N1[C@@H](C(=O)Nc1ccccc1OCc1ccccc1)c1ccc(F)cc1F was tested, and the XC50 was 1.02 µM. With COc1ccc(Br)cc1/C=C/C(=O)Nc1cccc(C2CCN(C)CC2)c1 the XC50 was 0.523 µM. COc1cccc(Nc2nc(C)cc(Nc3cccc(C#N)c3)n2)c1 showed an XC50 of 1.08 µM. Work on Cc1ccc(O)cc1Nc1ccnc2ccc(-c3cccc(CNCCN(C)C)c3)cc12 yielded an XC50 of 0.612 µM. In the case of O=S(=O)(c1ccc(OCc2ccc(Cl)cc2)cc1)c1cc2c(cc1OCc1ccccc1)CCN(C1CCC1)CC2, the XC50 is reported as 1.02 µM. COc1ccc2nccc([C@@H](O)CN3CCC(NC(=O)C(c4ccsc4)N4CCN(c5ccccc5)CC4)CC3)c2c1 (stereo partly drawn) showed an XC50 of 0.442 µM. O=S(=O)(NCCN1CCCC1)c1cccc(-c2ccccc2CNC2Cc3ccccc3C2)c1 showed an XC50 of 0.738 µM. For Cc1cccc2nc(-c3cccc(-c4cccc(NC(=O)Nc5ccc(Cl)c(Cl)c5)c4)c3)[nH]c12, the XC50 was 0.375 µM. CC(C)NCc1cccc(-c2cccc(-c3nc4cc(F)ccc4[nH]3)c2)c1 gave an XC50 of 0.285 µM. With COc1cccc(C(=O)Nc2sc3c(c2C(N)=O)CCCC3)c1OC the XC50 was 0.932 µM. Compound CCCCCCN1CCN(Cc2cccc(NC(=O)c3ccc(Cl)c(Cl)c3)c2)CC1 has an XC50 of 0.61 µM. For COc1ccc(C(=O)CCC(=O)N(CCSC(C)(C)C)Cc2ccc(-c3ccc(CNCCc4ccc(S(C)(=O)=O)cc4)cn3)cc2)cc1F, the XC50 was 0.627 µM. With COC(=O)CCCCCOc1cc(Cc2cnc(N)nc2N)cc(OC)c1OC the XC50 was 0.179 µM. Work on CCNCc1cccc(-c2ccc3ccnc(N)c3c2)c1 yielded an XC50 of 0.0469 µM. In the case of CS(=O)(=O)Nc1ccc2[nH]cc(C3CCN(CCCCCNC(=O)/C=C/c4ccc(Cl)c(Cl)c4)CC3)c2c1, the XC50 is reported as 0.736 µM. Clc1ccc(C2CCN(CCCOc3ccc4c(c3)CCNCC4)CC2)cc1 was tested, and the XC50 was 0.754 µM. With Nc1ncnc2c1ncn2C(CO)Cc1ccc(O)cc1 (stereo not drawn) the XC50 was 1.03 µM. Compound O=C(NC(Cc1ccccc1)C(=O)O)c1cc(=O)c2ccccc2o1 (stereo not drawn) has an XC50 of 0.191 µM. For CC(Cc1ccc(SCCSc2ccccc2)cc1)NCC(O)c1cccc(Cl)c1 (stereo not drawn), the XC50 was 0.367 µM. With COC1(C)Oc2ccc3cccc([N+](=O)[O-])c3c2C1=O (stereo not drawn) the XC50 was 0.635 µM. COc1ccccc1C1CCN(C2CCC(NC(=O)/C=C/c3cc(F)cc(F)c3)CC2)CC1 (stereo not drawn) was tested, and the XC50 was 1.11 µM. With Nc1nc2c(ncn2COC2COP(=O)(O)OC2)c(=O)[nH]1 (stereo not drawn) the XC50 was 0.454 µM. In the case of CCn1c(SC)nnc1C1CCCN(CC(=O)Nc2nc3ccc(OC)cc3s2)C1 (stereo not drawn), the XC50 is reported as 0.746 µM. For CCOc1ccccc1C1C(C(=O)C(C)(C)C)N2c3ccc(Br)cc3C=CC2C12C(=O)c1ccccc1C2=O (stereo not drawn), the XC50 was 0.853 µM. For Cc1ccc(Cn2c(N3CCC(C(=O)NCc4cccs4)CC3)nc3ccccc32)cc1, the XC50 was 0.748 µM. COC(=O)c1ccc2nc(-c3cc(-c4cccc(-c5ccccc5)c4)cnc3N)[nH]c2c1 was tested, and the XC50 was 0.211 µM. With COc1ccccc1-c1csc(C(=O)NCC2CCN(Cc3ccc(C(C)C)cc3)C2)c1 (stereo not drawn) the XC50 was 1.35 µM. Cc1cc(N[C@@H](Cc2ccccc2)C(=O)NCc2cccs2)nc(NCCc2cccnc2)n1 gave an XC50 of 1.01 µM. N#Cc1cccc(C(=O)Nc2ccc(-c3nc4ccccc4[nH]3)cc2)c1 gave an XC50 of 0.541 µM. For Cc1ccc(C2(C)CC(C)(C)N(C(=O)COc3ccc4ccccc4c3)c3ccccc32)cc1 (stereo not drawn), the XC50 was 0.113 µM. CC1(C)[C@H]2CC[C@@H](CNc3nc(NCCc4c[nH]cn4)nc(NCc4cc(F)ccc4F)n3)[C@@H]1C2 showed an XC50 of 0.311 µM. CCNc1cc(C(=O)N[C@@H](Cc2ccccc2)[C@H](O)CNCc2cccc(-c3cncnc3)c2)cc(N2CCCC2=O)c1 was tested, and the XC50 was 0.663 µM. Work on O=C(/C=C/c1ccc(Cl)c(Cl)c1)NCCCCCN1CCC(NC(=O)NC2CCCCC2)CC1 yielded an XC50 of 0.557 µM. O=C(NC1CCN(c2ccnc3cc(Cl)ccc23)C1)c1ccccc1F (stereo not drawn) was tested, and the XC50 was 0.971 µM. Cc1ccc2c(=O)cc(CCc3cccc(F)c3F)n(CC(=O)N(Cc3ccc(-c4ccc(C(F)(F)F)cc4)cc3)C3CCN(C)CC3)c2n1 gave an XC50 of 1.26 µM. CC1(CCCCN2CCC(Oc3ccc(F)cc3F)CC2)C(=O)Nc2ccccc21 (stereo not drawn) showed an XC50 of 0.761 µM. COc1ccc2nc(C)cc(Nc3ccc(Oc4ccc(Cl)c5ccccc45)c(Cl)c3)c2c1 gave an XC50 of 0.73 µM. With Cc1cc(NCCC(=O)Nc2ccccc2)nc(NCCOc2ccccc2)n1 the XC50 was 1.14 µM. Clc1ccc(-c2ccc(C=NNc3nc(=Nc4ccccc4)[nH]c(=Nc4ccccc4)[nH]3)o2)cc1Cl was tested, and the XC50 was 0.736 µM. CC[C@H](C)CNC(=O)c1cncc(-c2ccc(CN(C)C3CCN(C)CC3)cc2)c1 was tested, and the XC50 was 0.987 µM. COc1ccc(C2CC(c3cccs3)=NN2C(=O)CNc2ccccc2F)cc1OC (stereo not drawn) showed an XC50 of 0.631 µM. With CCN(CC)CCN(Cc1ccc(-c2ccc(C(F)(F)F)cc2)cc1)C(=O)Cn1c(CCc2ccccc2F)nc(=O)c2ccccc21 the XC50 was 0.934 µM. In the case of N#Cc1ccc(S(=O)(=O)N2C(c3cccc([N+](=O)[O-])c3)C(C(=O)c3ccccc3)N(C3CCCCC3)C2c2cccc([N+](=O)[O-])c2)cc1 (stereo not drawn), the XC50 is reported as 1.08 µM. Work on CC1(C)NC(N)=NC(=N)N1OCCCOc1cc(Cl)ccc1Cl yielded an XC50 of 0.0032 µM. COc1ccc(CN2CCCC(C(=O)c3ccc(C(F)(F)F)cc3)C2)c(O)c1 (stereo not drawn) was tested, and the XC50 was 0.849 µM. COc1ccc2ncc(F)c(CCN3CC(O)C(CNCc4nc5c(cc4Cl)OCC(=O)N5)C3)c2n1 (stereo not drawn) showed an XC50 of 0.83 µM. Cc1ccc(Nc2nc(C)cc(NC3CC3)n2)cc1 was tested, and the XC50 was 1.22 µM. Work on Cc1ccc(Nc2nccc(NCC(O)c3cccc(F)c3)n2)cc1 (stereo not drawn) yielded an XC50 of 0.675 µM. In the case of CN(C)CCNCc1cccc(-c2ccc3c(Nc4ccc(F)cc4Cl)ccnc3c2)c1, the XC50 is reported as 0.809 µM. COc1ccc(C(c2ccc(N(C)C)cc2)c2ccc(N(C)C)cc2)cc1 was tested, and the XC50 was 0.0648 µM. Work on N=C(N)Nc1nc(-c2cc(NC(=O)C(F)(F)F)cc([N+](=O)[O-])c2)cs1 yielded an XC50 of 0.781 µM. Compound O=C(Nc1ccc(Br)cc1)c1cc(Br)ccc1NS(=O)(=O)c1cc(C(F)(F)F)cc(C(F)(F)F)c1 has an XC50 of 0.885 µM. N#Cc1ccc(NC(=O)Nc2ccc3c(c2)CCN(C2CCC2)CC3)cc1 showed an XC50 of 0.628 µM. O=C(Nc1ccc(OC(F)(F)F)cc1)NC1CCN(c2ccnc3ccccc23)C1 (stereo not drawn) showed an XC50 of 0.244 µM. Compound O=c1ccc2ccc(F)cc2n1CCN1CCC(NCc2ccc(-c3ccccn3)s2)CC1 has an XC50 of 0.887 µM. With Cc1[nH]c(C)c(-c2ccc(CCc3ccc(F)cc3F)cc2)c(=O)c1Br the XC50 was 0.00529 µM. For CC1CN(c2ccc3occ(C(=O)Nc4ccc(-c5ccncc5)c(Cl)c4)c3c2)CC(C)N1C (stereo not drawn), the XC50 was 0.855 µM. Cc1cccc2nc(-c3cccc(-c4ccc(NC(=O)c5ccc(=O)[nH]n5)cc4)c3)[nH]c12 was tested, and the XC50 was 0.857 µM. O=C(CSc1cccc[n+]1[O-])c1ccc(Cc2ncc(C(F)(F)F)cc2Cl)s1 was tested, and the XC50 was 0.715 µM. Compound CC(C)Oc1ccc2ccccc2c1CNCCCCCCNCc1c(OC(C)C)ccc2ccccc12 has an XC50 of 0.612 µM. For Cc1cc(OCCCN2CCN(CCN3CCOCC3)CC2)ccc1NC(=O)COc1ccc(Cl)cc1C(=O)c1cc(Cl)cc(C#N)c1, the XC50 was 0.697 µM. For Cc1c(Cl)cccc1S(=O)(=O)Nc1ccc(CCN2CCC(N)CC2)cc1, the XC50 was 1.46 µM. Work on O=C(Nc1ccc2c(c1)CCN2C1CCN(Cc2cccc3cc[nH]c23)C1)c1ccco1 (stereo not drawn) yielded an XC50 of 1.21 µM. With CCCC(C)NC(=O)[C@H](CC1CCCCC1)NC(=O)c1ccc(O)c(-c2ccc(OC)cc2)c1 (stereo partly drawn) the XC50 was 1.13 µM. With CCNc1cc(C(=O)N[C@@H](Cc2ccc(Cl)cc2)[C@H](O)CNC2CCCCC2)cc(N2CCCCS2(=O)=O)c1 the XC50 was 0.15 µM. Compound O=C(Nc1nc(-c2ccccn2)cs1)c1ccc(Br)s1 has an XC50 of 1.06 µM. Work on COc1ccc(C(=O)C2CCN(CCCCNC(=O)c3ccc(NC(=O)c4ccc(Cl)cc4)cc3)CC2)c(OC)c1 yielded an XC50 of 0.772 µM. With CCOc1ccc2nc3cc([N+](=O)[O-])ccc3c(N)c2c1 the XC50 was 0.139 µM. Compound COc1ccccc1-c1sccc1C(=O)NC1(c2cc(Cl)cc(Cl)c2)CCCC1 has an XC50 of 0.938 µM. COc1ccc(C(=O)CCC(=O)N(Cc2ccc(-c3ccc(CNCCc4ccc(S(C)(=O)=O)cc4)cn3)cc2)C2CC3CCC2C3)cc1F (stereo not drawn) was tested, and the XC50 was 0.927 µM. Cc1cccc2nc(-c3ccc(-c4ccc(CN5CCCC(N)C5)cc4)s3)[nH]c12 (stereo not drawn) gave an XC50 of 0.382 µM. CC(C)COc1ccc(Cl)cc1Cc1nc(-c2nc3ccc(N4CCN(C)CC4)nc3[nH]2)cs1 showed an XC50 of 0.751 µM. Work on NC(=O)Nc1ccc2cn[nH]c2c1 yielded an XC50 of 0.205 µM. With O=C(NC1CCCCC1)N(Cc1ccccc1-c1ccc(CNCCc2ccccc2)cc1)C1CCN(Cc2ccccc2)CC1 the XC50 was 0.93 µM. In the case of O=C(Nc1ccc(-c2nc3ccccc3[nH]2)cc1)c1cncc(Br)c1, the XC50 is reported as 0.814 µM. In the case of COc1ccc2c(c1)ncn2-c1cc(OCc2ccncc2Br)c(C(N)=O)s1, the XC50 is reported as 0.609 µM.
